Experimental data from publication PMC9730446 (Science translational medicine, 2022).

Experiments:
KOPT-K1 cells [1] = type: cell-based
KOPT-K1 cells [2] = test: In vitro drug wash-out assay, cell growth; type: cell-based; conditions: 100nM for 18 hours, then drug-free media
in vivo = conditions: NSG, mouse, plasma, ip, 10 mg/kg
[3] = Cytotoxicity in CD34+ cells from healthy donors; conditions: human, CD34+ cells from cord blood of healthy donors
[4] = Cytotoxicity in peripheral blood mononuclear cells; conditions: human, peripheral blood mononuclear cells (PBMCs)

Compound	effect of lenalidomide on LC50 (KOPT-K1 cells [1])	effect of CRBN deletion (CRBN^KO) on cell sensitivity (KOPT-K1 cells [1]; CRBN^KO vs CRBN^WT KOPT-K1, 72 hours)	time post drug removal at which cells began to recover (KOPT-K1 cells [2])	AUC (in vivo)	half-life (in vivo)	CC50 at 72 h [3]	CC50 at 72 h [4]	effect on T-ALL survival and growth (KOPT-K1 cells [1]; single agent)
Cc1nc(Nc2ncc(C(=O)Nc3c(C)cccc3Cl)s2)cc(N2CCN(CCO)CC2)n1 [dasatinib]	did not alter	did not alter cell sensitivity	96 h	1400 ng·h/mL	55.2 min	92.9 nM	2.81 nM	–
Nc1cccc2c1CN(C1CCC(=O)NC1=O)C2=O (centres unmarked) [lenalidomide]	–	–	–	–	–	–	–	no effect
